Measurements as given in a melting point compilation (Tetko et al.).

SMILES	melting point
COc1cc(C2Nn3c(nnc3-c3cccc([N+](=O)[O-])c3)S2)ccc1O (centres undefined)	165 °C
O=C(CCl)NC1CC1	82 °C
COc1cc(CO)cc(Cl)c1O	117 °C
Nc1ncnc2c1ncn2C1CC(O)C(COP(=O)(O)O)O1 (centres undefined)	148 °C
C1CCCCCCCCCCCC1	23 °C
CCOC(=O)CNc1ccc(I)cc1	84 to 86 °C
COc1ccc2nc(C)ccc2c1	64 °C
COc1cc(CCO)ccc1O	41 °C
CN1CCOc2cc(C(=O)Cl)ccc21	96 to 100 °C
O=C(Oc1cccc(N=Nc2cccc(OC(=O)c3ccccc3)c2)c1)c1ccccc1	180 °C
O=C(Cc1ccccc1)OC1Cc2ccccc21 (centres undefined)	42 °C
CCCCCCCCn1c(=O)c2cc3c(OC)c4cc5c(=O)n(CCCCCCCC)c(=O)c5cc4c(OC)c3cc2c1=O	238 °C
CCOC(=O)c1c(SC)nn(C(=O)Cc2ccccc2)c1N	120 °C
O=C1C=C(N2CC2)C(=O)C(N2CC2)=C1N1CC1	163 °C
Cc1ccsc1C=CC1=NCCCN1C	240 °C
O=C(C(=S)Nc1ccccc1Cl)c1ccccc1	119 °C
Oc1c(F)ccc(F)c1F	33.5 °C
COc1ccc(C(=O)c2ccccc2O)c(O)c1	68 °C
Clc1ccc2oc3c(Cl)c(Cl)c(Cl)c(Cl)c3c2c1	178 °C
O=C1CCCCCCC1	40.5 °C
Cn1c(=O)c(C2=NNC(=O)C2=CNc2cccnc2)c(O)c2ccccc21	281 °C
CC(CCl)OC(C)CCl (centres undefined)	-97 °C
O=C(O)C(Br)=C(Br)C(=O)O	119 to 125 °C
O=C1CC(c2ccccc2)Oc2ccccc21 (centres undefined)	77 °C
Cn1sc(Cl)cc1=O	52 °C
CCC12CCCN(CCc3c([nH]c4ccccc34)CC1)C2 (centres undefined)	146 °C
Clc1ccccc1C(c1ccccc1)(c1ccccc1)n1ccnc1	147 °C

SMILES	melting point
CON=C(C(=O)Sc1nc2ccccc2s1)c1csc(N)n1	126 to 130 °C
Cc1cc2c(o1)-c1c(oc3ccc(Cl)cc13)CCC2C (centres undefined)	93 °C
Cc1cc(C)n2nc(N)c(/N=N/c3cc(Cl)ccc3Cl)c2n1	279 °C
COc1ccc(C2Sc3ccccc3NC(=O)C2O)cc1 (centres undefined)	203 to 207 °C
O=c1/c(=C/c2ccc3c(c2)OCO3)sc2n1CCCN=2	151 °C
Nc1nc(-c2ccc3ccccc3c2)cs1	155 °C
Cc1ccc(C(N)C(N)c2ccc(C)cc2)cc1 (centres undefined)	113 to 117 °C
Cc1[nH]c2nc(C(F)(F)F)nn2c(=O)c1Cl	215 °C
COc1ccc2[nH]cc(CC(=O)O)c2c1	148 to 150 °C
Cc1ccc2c(c1)C(=O)CC2	58 °C
Cc1c(Br)cc(N)cc1Br	91 °C
C1CCN2CC3CC(CN4CCCCC34)C2C1 (centres undefined)	30.5 °C
CN1CCc2c(c3ccccc3n2Cc2ccccc2)C1	95 °C
OCC1OC(SCCc2ccccc2)C(O)C(O)C1O (centres undefined)	100 °C
N#CCc1ccc(OCc2ccccc2)cc1	68 °C
Cn1c(=O)c(C2=NNC(=O)C2=NNc2nccs2)c(O)c2ccccc21	301 °C
FC(F)(F)C(F)(F)C(F)(F)C(F)(F)C(F)(F)C(F)(F)C(F)(F)C(F)(F)I	37 °C
CCCCC(CC)COC(=O)OOC(C)(C)C (centres undefined)	-50 °C
O=c1[nH]c2ccccc2n1C1CCNCC1	183 to 185 °C
Cc1cc(C)n(CN(CCO)Cn2nc(C)cc2C)n1	82 to 84 °C
COC(=O)c1ccc(C)nc1	34 to 37 °C
CC1CCC(C)(COC(=O)c2ccc([N+](=O)[O-])cc2)C1(C)C (centres undefined)	95 °C
CNC(=O)Oc1ccccc1C1OCCO1	114 °C
CC(Cl)(Cl)C(=O)OCCOc1cc(Cl)c(Cl)cc1Cl	49.5 °C
NC(=O)NCc1ccc(F)cc1	172 to 175 °C
O=C(c1ccc(F)cc1)c1cccs1	97 °C
CC1CC(OC(=O)c2ccccc2)CC(C)(C)N1 (centres undefined)	70.5 °C

SMILES	melting point
O=C(Cl)c1scc2c1OCCO2	75 to 76 °C
Cc1ccc(-c2ccccc2)cc1C	29.5 °C
CCCCCCCCCCCCCC(=O)OC(C)C	3 °C
CCCOC(=O)c1ccc(OC(=O)c2ccc(C(=O)Oc3ccc(C(=O)OCCC)cc3)cc2)cc1	129 to 205 °C
CN(C)c1ccc(N=c2cc(-c3ccccc3)oc(-c3ccccc3)c2)cc1	148 °C
O=C(NC(CO)(Cc1ccccc1)C(=O)O)c1ccccc1 (racemic)	160 to 162 °C
COP(=S)(OC)Oc1nc(Cl)c(Cl)cc1Cl	46 °C
Cc1c(C(=O)CBr)sc2ccccc12	98 to 99 °C
CCOC(=O)c1ccc(Cl)c([N+](=O)[O-])c1	57 to 61 °C
CCOC(=O)Cc1n[nH]c2ccc(Cl)cc12	77 °C
COC(=O)c1ccsc1N	79 °C
COC(=O)c1cccc(Cn2nc(C)c(Br)c2C)c1	105 to 107 °C
CC12CCC(C1(C)C)C(CCC(Br)c1ccccc1)(C1(CCC(Br)c3ccccc3)C(=O)C3(C)CCC1C3(C)C)C2=O (centres undefined)	168 °C
Clc1cc2c(cc1Cl)Oc1ccccc1O2	163 °C
Clc1ccc(C=NC2Nc3ccccc3N2)cc1	155 °C
O=C(OCCOC(=O)C(Cl)(Cl)Cl)C(Cl)(Cl)Cl	40 °C
C1C2CC3CC1CC(SSC14CC5CC(CC(C5)C1)C4)(C2)C3	225 to 228 °C
CC12C=C(C=O)C(=O)C=C1CCC1C2C(O)CC2(C)C1CCC2(C)O (centres undefined)	210 °C
Nc1c(Cl)cc(C(F)(F)F)cc1Cl	36 °C
CCOC(=O)CCC(=O)OC(C(=O)c1ccccc1)c1ccccc1 (centres undefined)	48 to 57 °C
Cc1ccc(C(=O)N(NC(=O)c2ccccc2)C(C)(C)C)cc1	188 °C
CC(=O)Nc1ccc(Br)c(Cl)c1	125 to 128 °C
CCCCCCCCc1ccc(C(=O)CCC(=O)O)cc1	91 to 93 °C
NC(=O)Nc1ccccc1	147 °C
c1cncc(-c2ccnc(-c3cccnc3)c2)c1	148 °C

Now from value to molecule:

melting point	SMILES
136 to 138 °C	Nc1nsc(-c2ccccc2)n1
98 °C	OCc1nc2ccccc2s1
166 °C	CC1=N[C@]2(c3ccccc3)Oc3c(c4ccccc4c4ccccc34)O[C@@H]2O1
129 °C	C=NCC#N
-5 °C	CCCCCCCCCCCc1ccccc1
120 °C	C=C(Br)CC(NC(=O)OCC1c2ccccc2-c2ccccc21)C(=O)O (centres undefined)
31 °C	COc1cncc(Br)c1
86 °C	COC(=O)Cc1c(Cl)[nH]c(C)c1C(=O)OC
172 °C	CC/C(=C(/CC)c1ccc(O)cc1)c1ccc(O)cc1
55 to 58 °C	O=C(CBr)c1ccc(OC(F)(F)F)cc1
217 to 222 °C	O=C1C(c2ccccc2)=C(c2ccccc2)C(c2ccccc2)=C1c1ccccc1
47 °C	O=C(c1ccccc1)c1ccc(F)cc1
66.5 to 69.8 °C	CCOC(=O)c1csc(C2COc3ccccc3O2)n1 (centres undefined)
177 to 179 °C	Nc1nnc(-c2ccccc2)c(-c2ccccc2)n1
-108 °C	CCC1CCC(C)C1 (centres undefined)
16 to 18 °C	CCOC(=O)C(=O)CC(C)=O
114 to 117 °C	O=Cc1ccc(C=O)s1
93 °C	CC(C)(C)OC(=O)Nc1ccccn1
-40 °C	C1CCC2OC2C1 (centres undefined)
119 °C	O=C(COC(=O)c1ccccc1)c1ccccc1
95 to 100 °C	COc1cc(Br)c(CO)cc1OC
73 °C	Cc1c2c(c(CCl)c3c1CC3)CC2
57 to 59 °C	O=Cc1ccc(-c2ccccc2)nc1
219 °C	O=C(O)c1ccc(S)cc1
61 °C	CSC(SC)=C(C(C)=O)C(C)=O

melting point	SMILES
53 °C	Cc1cc(C#N)ccc1Br
144 °C	CCOc1ccc2ccccc2c1C(=O)O
232 to 234 °C	Nc1cc(=O)oc2ccccc12
28 °C	CCCCCCCCCCCCCCCCCC(=O)OC(C)C
170 °C	CC1(C)C2CCC1(C)C(/N=C\c1ccc([N+](=O)[O-])cc1)C2/N=C/c1ccc([N+](=O)[O-])cc1 (centres undefined)
190 to 192 °C	S=C1NC2=C(CCCC2=Cc2ccccc2)C(c2ccccc2)N1 (centres undefined)
150 °C	O=C(O)C1Cc2cc3c(cc21)OCO3 (centres undefined)
168 to 170 °C	O=C(O)c1ccc(OC2CCOCC2)nc1
37 °C	O=C(O)C1(C(F)(F)F)CCCC1
64 °C	CCOC(=O)Cc1ccc([N+](=O)[O-])cc1
322 °C	O=c1c(Cl)c[nH]cc1Cl
192 to 193 °C	CCOC(=O)CSc1nc(=O)[nH]c2c1CCCC2
87.5 °C	C1CC2CCC1C2
31.5 to 36 °C	CC(O)CN(CCO)CCO (centres undefined)
116 °C	CCCCC(=O)N(Cc1ccc(-c2ccccc2-c2nnn[nH]2)cc1)C(C(=O)O)C(C)C (centres undefined)
60 °C	COc1cc([N+](=O)[O-])ccc1N1CCCC1
151 to 153 °C	NNC(=O)C12CC3CC(CC(C3)C1)C2
141 to 143 °C	COC(=O)c1ccc(N2CCCC2)cc1
52 °C	COC(=O)c1ccccc1C(=O)c1ccccc1
86 to 87 °C	O=S(=O)(Cl)c1csc(C(F)(F)F)c1-c1ccccc1
11.5 °C	C1CCC(CCC2CCCCC2)CC1
306 °C	O=C(O)c1cc(Cl)c(C(=O)O)cc1Cl
190 to 192 °C	CCOc1cccc2cc(C(=O)O)c(=O)oc12
241 to 242 °C	COc1ccccc1Nc1[nH]c(=S)nnc1-c1ccccc1
180 °C	O=C(O)c1nnn(Cc2ccccc2)c1C(=O)O
